From patent US20260241012A1, “1,8-NAPHTHYRIDIN-2-ONE HETEROBIFUNCTIONAL BCL6 DEGRADERS” (Treeline Biosciences, Inc., priority 2022, published 2026) come the findings set out here.

Structures are written as SMILES. Some results are limits rather than exact numbers.

This test has as its target T1, N-terminal HiBiT tagged BCL6 (Homo sapiens, UniProt P41182).
T1 construct: expressed in transfected cells; host or cells: HT1080 (ATCC CCL-121), stably transduced with lentivirus pLV-UBC-N-HiBiT-BCL6-PGK-puro
The test is described as follows: HiBiT based degradation assay. The class given is cell-based. The settings on record: HT1080 cells expressing N-terminal HiBiT tagged BCL6, 5 hours of incubation; for Ymin (5 hr): BCL6 degradation normalized with DMSO control; for DC50: four-parameter logistic model, read-out: EC50 (5 hr). The procedure, abridged: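 Degradation measured by luminescence from the Nano-Glo HiBiT lytic reagent (15 min, room temperature), normalized to DMSO controls and fitted to a four-parameter curve.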
Background: HiBiT is a short tag that completes a luciferase, so light tracks the accessible tagged protein.

`CNC(=O)COc1cc2cc(Nc3nc(N4CCC5(CC4)CN(CC4CCN(c6cccc7c(C8CCC(=O)NC8=O)nn(C)c67)CC4)C5)ncc3Cl)cnc2n(C)c1=O` (centres unmarked) [Compound 120, 2-((6-((5-chloro-2-(2-((1-(3-(2,6-dioxopiperidin-3-yl)-1-methyl-1H-indazol-7-yl)piperidin-4-yl)methyl)-2,7-diazaspiro[3.5]nonan-7-yl)pyrimidin-4-yl)amino)-1-methyl-2-oxo-1,2-dihydro-1,8-naphthyridin-3-yl)oxy)-N-methylacetamide]: the “Ymin (5 hr)” value is given as “++++ (Ymin < 30%)” and the DC50 is less than 10 nM.

Regarding `CNC(=O)COc1cc2cc(Nc3nc(N4CCN(CC5CCN(c6cccc7c(C8CCC(=O)NC8=O)nn(C)c67)CC5)CC4)ncc3Cl)cnc2n(CCOC)c1=O` (centres unmarked) [Compound 154, 2-((6-((5-chloro-2-(4-((1-(3-(2,6-dioxopiperidin-3-yl)-1-methyl-1H-indazol-7-yl)piperidin-4-yl)methyl)piperazin-1-yl)pyrimidin-4-yl)amino)-1-(2-methoxyethyl)-2-oxo-1,2-dihydro-1,8-naphthyridin-3-yl)oxy)-N-methylacetamide], the “Ymin (5 hr)” value is given as “++++ (Ymin < 30%)” and the DC50 is less than 10 nM.

As for `CNC(=O)COc1cc2cc(Nc3nc(N4CC[C@H](CN5CCN(c6cccc7c(C8CCC(=O)NC8=O)nn(C)c67)CC5)[C@@H](C)C4)ncc3Cl)cnc2n(C(C)C)c1=O` (stereo partly drawn) [Compound 177d, 2-((6-((5-chloro-2-((3R,4S)-4-((4-(3-(2,6-dioxopiperidin-3-yl)-1-methyl-1H-indazol-7-yl)piperazin-1-yl)methyl)-3-methylpiperidin-1-yl)pyrimidin-4-yl)amino)-1-isopropyl-2-oxo-1,2-dihydro-1,8-naphthyridin-3-yl)oxy)-N-methylacetamide], the “Ymin (5 hr)” value is recorded as “++++ (Ymin < 30%)” and the DC50 lay in the range of 10 to 100 nM.

Turning to `CNC(=O)COc1cc2cc(Nc3nc(N4CCC(CN5CCCN(c6ccc7c(C8CCC(=O)NC8=O)nn(C)c7c6)CC5)CC4)ncc3Cl)cnc2n(C(C)C)c1=O` (centres unmarked) [Compound 235, 2-[[6-[[5-chloro-2-[4-[[4-[3-(2,6-dioxo-3-piperidyl)-1-methyl-indazol-6-yl]-1,4-diazepan-1-yl]methyl]-1-piperidyl]pyrimidin-4-yl]amino]-1-isopropyl-2-oxo-1,8-naphthyridin-3-yl]oxy]-N-methyl-acetamide], the “Ymin (5 hr)” value was “+++ (30% ≤ Ymin < 50%)” and the DC50 was 10 to 100 nM.

As for `CNC(=O)COc1cc2cc(Nc3nc(N4CCC(CN5CCC(c6ccc7c(C8CCC(=O)NC8=O)nn(C)c7c6)CC5)CC4)ncc3Cl)cnc2n(C(C)C)c1=O` (centres unmarked) [Compound 212, 2-((6-((5-chloro-2-(4-((4-(3-(2,6-dioxopiperidin-3-yl)-1-methyl-1H-indazol-6-yl)piperidin-1-yl)methyl)piperidin-1-yl)pyrimidin-4-yl)amino)-1-isopropyl-2-oxo-1,2-dihydro-1,8-naphthyridin-3-yl)oxy)-N-methylacetamide], the “Ymin (5 hr)” value is on record as “++++ (Ymin < 30%)” and the DC50 was less than 10 nM.

For `CNC(=O)COc1cc2cc(Nc3cc(N4CCN(CC5CCN(c6cccc7c(C8CCC(=O)NC8=O)nn(C)c67)CC5)CC4)ncc3Cl)cnc2n(C)c1=O` (centres unmarked) [Compound 160, 2-((6-((5-chloro-2-(4-((1-(3-(2,6-dioxopiperidin-3-yl)-1-methyl-1H-indazol-7-yl)piperidin-4-yl)methyl)piperazin-1-yl)pyridin-4-yl)amino)-1-methyl-2-oxo-1,2-dihydro-1,8-naphthyridin-3-yl)oxy)-N-methylacetamide], the “Ymin (5 hr)” value is listed as “++++ (Ymin < 30%)” and the DC50 is less than 10 nM.

For the compound `CNC(=O)COc1cc2cc(Nc3nc(N4CCC(CN5CCN(c6cccc7c(C8CCC(=O)NC8=O)nn(C)c67)CC5(C)C)CC4)ncc3Cl)cnc2n(C(C)C)c1=O` (centres unmarked) [Compound 200, 2-[[6-[[5-chloro-2-[4-[[4-[3-(2,6-dioxo-3-piperidyl)-1-methyl-indazol-7-yl]-2,2-dimethyl-piperazin-1-yl]methyl]-1-piperidyl]pyrimidin-4-yl]amino]-1-isopropyl-2-oxo-1,8-naphthyridin-3-yl]oxy]-N-methyl-acetamide], the “Ymin (5 hr)” value is recorded as “+++ (30% ≤ Ymin < 50%)” and the DC50 fell in the range of 10 to 100 nM.

Consider `CNC(=O)COc1cc2cc(Nc3nc(N4CCC5(CCC(CN6CCC(c7ccc8c(C9CCC(=O)NC9=O)nn(C)c8c7)CC6)CC5)CC4)ncc3Cl)cnc2n(C(C)C)c1=O` (centres unmarked) [Compound 237, 2-((6-((5-chloro-2-(9-((4-(3-(2,6-dioxopiperidin-3-yl)-1-methyl-1H-indazol-6-yl)piperidin-1-yl)methyl)-3-azaspiro[5.5]undecan-3-yl)pyrimidin-4-yl)amino)-1-isopropyl-2-oxo-1,2-dihydro-1,8-naphthyridin-3-yl)oxy)-N-methylacetamide], for which the “Ymin (5 hr)” value is reported as “++++ (Ymin < 30%)” and the DC50 was less than 10 nM.

On to `CNC(=O)COc1cc2cc(Nc3nc(N4CCN(CC5CCN(c6cccc7c(C8CCC(=O)NC8=O)nn(C)c67)CC5)C[C@H]4CO)ncc3Cl)cnc2n(C(C)C)c1=O` (stereo partly drawn) [Compound 155a, 2-((6-((5-chloro-2-((2S)-4-((1-(3-(2,6-dioxopiperidin-3-yl)-1-methyl-1H-indazol-7-yl)piperidin-4-yl)methyl)-2-(hydroxymethyl)piperazin-1-yl)pyrimidin-4-yl)amino)-1-isopropyl-2-oxo-1,2-dihydro-1,8-naphthyridin-3-yl)oxy)-N-methylacetamide], for which the “Ymin (5 hr)” value was “+++ (30% ≤ Ymin < 50%)” and the DC50 was 10 to 100 nM.

For the compound `CNC(=O)COc1cc2cc(Nc3nc(N4CC[C@H](CNc5ccc6c(C7CCC(=O)NC7=O)nn(C)c6c5)C4)ncc3Cl)cnc2n(C)c1=O` (stereo partly drawn) [Compound 123a, 2-((6-((5-chloro-2-((3R)-3-(((3-(2,6-dioxopiperidin-3-yl)-1-methyl-1H-indazol-6-yl)amino)methyl)pyrrolidin-1-yl)pyrimidin-4-yl)amino)-1-methyl-2-oxo-1,2-dihydro-1,8-naphthyridin-3-yl)oxy)-N-methylacetamide], the “Ymin (5 hr)” value was “++ (50% ≤ Ymin < 70%)” and the DC50 was less than 10 nM.

Take `CNC(=O)COc1cc2cc(Nc3nc(N4CCN(CC5CCN(c6ccc7c(C8CCC(=O)NC8=O)nn(C)c7c6)CC5)[C@@H](CO)C4)ncc3Cl)cnc2n(C(C)C)c1=O` (stereo partly drawn) [Compound 153a, 2-((6-((5-chloro-2-((3R)-4-((1-(3-(2,6-dioxopiperidin-3-yl)-1-methyl-1H-indazol-6-yl)piperidin-4-yl)methyl)-3-(hydroxymethyl)piperazin-1-yl)pyrimidin-4-yl)amino)-1-isopropyl-2-oxo-1,2-dihydro-1,8-naphthyridin-3-yl)oxy)-N-methylacetamide]: the “Ymin (5 hr)” value is on record as “+++ (30% ≤ Ymin < 50%)” and the DC50 was less than 10 nM.

Turning to `CNC(=O)COc1cc2cc(Nc3nc(N4CC[C@@H](CN5CCC(c6ccc7c(C8CCC(=O)NC8=O)nn(C)c7c6)CC5)[C@@H](F)C4)ncc3Cl)cnc2n(C(C)C)c1=O` (relative stereo) [Compound 242b, 2-((6-((5-chloro-2-((3R,4S)-4-((4-(3-(2,6-dioxopiperidin-3-yl)-1-methyl-1H-indazol-6-yl)piperidin-1-yl)methyl)-3-fluoropiperidin-1-yl)pyrimidin-4-yl)amino)-1-isopropyl-2-oxo-1,2-dihydro-1,8-naphthyridin-3-yl)oxy)-N-methylacetamide], the “Ymin (5 hr)” value is “++++ (Ymin < 30%)” and the DC50 was less than 10 nM.

In the case of `CNC(=O)COc1cc2cc(Nc3nc(N4CCC(O[C@H]5C[C@H](N6CCN(c7ccc8c(C9CCC(=O)NC9=O)nn(C)c8c7)CC6)C5)CC4)ncc3Cl)cnc2n(C(C)C)c1=O` (some centres unmarked) [Compound 226a, 2-((6-((5-chloro-2-(4-((1r,3r)-3-(4-(3-(2,6-dioxopiperidin-3-yl)-1-methyl-1H-indazol-6-yl)piperazin-1-yl)cyclobutoxy)piperidin-1-yl)pyrimidin-4-yl)amino)-1-isopropyl-2-oxo-1,2-dihydro-1,8-naphthyridin-3-yl)oxy)-N-methylacetamide], the “Ymin (5 hr)” value was “+++ (30% ≤ Ymin < 50%)” and the DC50 was less than 10 nM.

For the compound `CNC(=O)COc1cc2cc(Nc3nc(N4CCC(CN5[C@H](C)CN(c6cccc7c(C8CCC(=O)NC8=O)nn(C)c67)C[C@@H]5C)CC4)ncc3Cl)cnc2n(C(C)C)c1=O` (stereo partly drawn) [Compound 197a, 2-[[6-[[5-chloro-2-[4-[[(2R,6S)-4-[3-(2,6-dioxo-3-piperidyl)-1-methyl-indazol-7-yl]-2,6-dimethyl-piperazin-1-yl]methyl]-1-piperidyl]pyrimidin-4-yl]amino]-1-isopropyl-2-oxo-1,8-naphthyridin-3-yl]oxy]-N-methyl-acetamide], the “Ymin (5 hr)” value is “+++ (30% ≤ Ymin < 50%)” and the DC50 is 10 to 100 nM.

Take `CNC(=O)COc1cc2cc(Nc3nc(N4CCN(CC5CCN(c6cccc7c(C8CCC(=O)NC8=O)nn(C)c67)CC5)C[C@@H]4CO)ncc3Cl)cnc2n(C(C)C)c1=O` (stereo partly drawn) [Compound 155b, 2-((6-((5-chloro-2-((2R)-4-((1-(3-(2,6-dioxopiperidin-3-yl)-1-methyl-1H-indazol-7-yl)piperidin-4-yl)methyl)-2-(hydroxymethyl)piperazin-1-yl)pyrimidin-4-yl)amino)-1-isopropyl-2-oxo-1,2-dihydro-1,8-naphthyridin-3-yl)oxy)-N-methylacetamide]: the “Ymin (5 hr)” value is on record as “++++ (Ymin < 30%)” and the DC50 was less than 10 nM.

With `CNC(=O)COc1cc2cc(Nc3nc(N4CCC(CN5CCN(c6ccc7c(C8CCC(=O)NC8=O)nn(C)c7c6)C[C@H]5CO)CC4)ncc3Cl)cnc2n(C(C)C)c1=O` (stereo partly drawn) [Compound 232a, 2-[[6-[[5-chloro-2-[4-[[(2S)-4-[3-(2,6-dioxo-3-piperidyl)-1-methyl-indazol-6-yl]-2-(hydroxymethyl)piperazin-1-yl]methyl]-1-piperidyl]pyrimidin-4-yl]amino]-1-isopropyl-2-oxo-1,8-naphthyridin-3-yl]oxy]-N-methyl-acetamide], the “Ymin (5 hr)” value is “+++ (30% ≤ Ymin < 50%)” and the DC50 was less than 10 nM.
